Patent publication US5624923A, “Tricyclic diazepine vasopressin antagonists and oxytocin antagonists” (priority 1995, dated 1997)

Key:
Rat Hepatic V1 Receptors = molecular target: T1, Rat Hepatic V1 Receptors (Rattus norvegicus, UniProt P30560); assay: Binding Assay to Rat Hepatic V1 Receptors; conditions: for IC50: rat liver membranes, read-out: V1 IC50; for inhibition at 10 µM: 2 h, rat
T1 construct: Rat liver plasma membranes expressing the vasopressin V1 receptor subtypes; from tissue; host or cells: rat liver plasma membranes

[1] = molecular target: T2, Rat Kidney Medullary V2 Receptors (Rattus norvegicus, UniProt Q00788); assay: Binding Assay to Rat Kidney Medullary V2 Receptors; conditions: for IC50: rat kidney medulla membranes, read-out: V2 IC50; for inhibition at 10 µM: rat
T2 construct: Medullary tissues from rat kidneys are dissected out; from tissue; host or cells: rat kidney medulla membranes
In short: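 Membranes were prepared from rat kidney medulla and stored in 50.0 mM Tris-HCl pH 7.4 with 0.2% BSA and 0.1 mM PMSF. Radioligand competition ran 120 min at bench temperature, with 1.0 μM unlabeled ligand defining nonspecific binding. Compounds were added in 50% DMSO; filtration, tritium scintillation counting, IC50 from competition analysis.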

oxytocin receptors = molecular target: T3, oxytocin receptors (Rattus norvegicus, UniProt P70536); assay: Oxytocin Receptor Binding; conditions: for IC50: 1.0 nM [3H]oxytocin; for inhibition at 10 µM: [3H]oxytocin
T3 construct: The uteri are dissected out, cleaned of fat and connective tissues; from tissue; host or cells: uterus of DES-treated female Sprague-Dawley rats
T3 sequence (P70536 1-388): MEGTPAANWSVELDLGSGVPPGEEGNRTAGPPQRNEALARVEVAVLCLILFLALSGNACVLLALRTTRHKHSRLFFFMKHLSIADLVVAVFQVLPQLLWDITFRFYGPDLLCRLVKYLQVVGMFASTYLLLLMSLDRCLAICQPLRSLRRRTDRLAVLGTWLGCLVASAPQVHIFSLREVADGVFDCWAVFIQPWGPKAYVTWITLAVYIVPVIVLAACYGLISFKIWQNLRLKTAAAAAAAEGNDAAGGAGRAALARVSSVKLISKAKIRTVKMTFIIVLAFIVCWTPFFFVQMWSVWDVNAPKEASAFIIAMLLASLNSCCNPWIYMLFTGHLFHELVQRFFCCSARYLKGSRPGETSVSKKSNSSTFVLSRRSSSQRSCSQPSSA
In short: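 Membranes from uteri of DES-primed (0.3 mg/kg i.m., 18 h) female Sprague-Dawley rats. Competition with 1.0 nM [3H]oxytocin in 50 mM Tris.HCl pH 7.4, 5 mM MgCl2 with protease inhibitors, 60 min at 22 °C, filtration read-out. Non-specific binding with 1.0 uM unlabeled OT; IC50 calculated.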

Vasopressin V2 = Vasopressin V2 Antagonist Activity in Conscious Hydrated Rats; format: in vivo, rat; conditions: AVP 0.4 μg/kg i.p.
In short: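 Four-hour urine output, osmolality and electrolytes (Na+, K+, Cl−) recorded in water-loaded rats (30 mL/kg deionized water orally) given AVP i.p. at 0.4 μg/kg. Test compounds were given orally at 0.1–100 mg/kg 1 h before AVP; 2–4 rats per compound.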

Vasopressin V1 = Vasopressin V1 Antagonist Activity in Conscious Rats (vasopressin vasopressor response); format: in vivo, rat; parameters: Average Change: unit not given here; conditions: for % Inhibition / Average Change: SHR
In short: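 Conscious rats are restrained supine, and under local 2% procaine a PE 10/20 cannula is passed through the ventral caudal tail artery into the lower abdominal aorta. The caudal vein is cannulated for intravenous dosing. Blood pressure is recorded with a Statham P23Db transducer, and vasopressin injections are repeated after compound dosing. Percent antagonism is calculated against the pre-drug vasopressor response taken as 100%.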

[2] = 10 mg/kg i.v., VAS 0.01 i.u./kg, 30 min
[3] = 10 mg/kg i.v., VAS 0.01 i.u./kg, 60 min
[4] = 10 mg/kg i.v., VAS 0.01 i.u./kg, 90 min
[5] = 10 mg/kg i.v., VAS 0.01 i.u./kg, 120 min
[6] = 10 mg/kg i.v., VAS 0.01 i.u./kg, 180 min
[7] = 10 mg/kg i.v., VAS 0.01 i.u./kg, 240 min
[8] = 10 mg/kg i.v., VAS 0.01 i.u./kg, 300 min
[9] = 10 mg/kg i.v., VAS 0.02 i.u./kg, 30 min
[10] = 10 mg/kg i.v., VAS 0.02 i.u./kg, 60 min
[11] = 10 mg/kg i.v., VAS 0.02 i.u./kg, 90 min
[12] = 10 mg/kg i.v., VAS 0.02 i.u./kg, 120 min
[13] = 10 mg/kg i.v., VAS 0.02 i.u./kg, 180 min
[14] = 10 mg/kg i.v., VAS 0.02 i.u./kg, 240 min
[15] = 10 mg/kg i.v., VAS 0.02 i.u./kg, 300 min

T1 sequence (P30560 whole entry): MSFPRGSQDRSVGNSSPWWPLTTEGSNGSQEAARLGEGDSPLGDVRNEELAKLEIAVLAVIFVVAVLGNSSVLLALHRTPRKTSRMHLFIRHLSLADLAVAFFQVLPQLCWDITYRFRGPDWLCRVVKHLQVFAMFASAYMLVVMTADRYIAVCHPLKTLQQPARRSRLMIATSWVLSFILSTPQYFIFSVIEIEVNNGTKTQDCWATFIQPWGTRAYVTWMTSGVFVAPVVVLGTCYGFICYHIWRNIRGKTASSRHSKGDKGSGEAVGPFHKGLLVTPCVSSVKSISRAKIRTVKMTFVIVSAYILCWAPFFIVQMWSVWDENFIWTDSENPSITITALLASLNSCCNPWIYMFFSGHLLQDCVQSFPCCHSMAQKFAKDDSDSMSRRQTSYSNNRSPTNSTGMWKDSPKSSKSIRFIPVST
T2 sequence (Q00788 whole entry): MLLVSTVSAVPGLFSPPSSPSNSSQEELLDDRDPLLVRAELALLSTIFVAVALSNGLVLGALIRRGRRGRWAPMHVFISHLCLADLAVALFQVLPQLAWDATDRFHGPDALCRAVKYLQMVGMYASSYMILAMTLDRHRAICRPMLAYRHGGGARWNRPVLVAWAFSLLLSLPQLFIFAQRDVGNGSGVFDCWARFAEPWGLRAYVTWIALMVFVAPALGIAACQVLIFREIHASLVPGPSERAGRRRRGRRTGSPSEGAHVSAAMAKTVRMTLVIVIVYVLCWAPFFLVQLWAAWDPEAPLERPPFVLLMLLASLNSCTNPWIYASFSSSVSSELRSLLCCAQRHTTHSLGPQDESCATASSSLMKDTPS

Cc1cccc(C(=O)Nc2ccc(C(=O)N3Cc4cccn4-c4ccccc43)cc2)c1C [Example 21, N-[4-(pyrrolo[1,2-a]quinoxalin-5(4H)-ylcarbonyl)phenyl]-2,3-dimethyl-benzamide]
IC50 (Rat Hepatic V1 Receptors): 930 nM
IC50 [1]: 87 nM
IC50 (oxytocin receptors): 2450 nM
inhibition at 10 µM (oxytocin receptors): 67%

Cc1cc(C(=O)N2Cc3cccn3Cc3ccccc32)ccc1NC(=O)c1ccccc1C [Example 96, N-[4-(5H-pyrrolo[2,1-c][1,4]benzodiazepin-10(11H)-ylcarbonyl)-2-methylphenyl]-2-methylbenzamide]
IC50 (Rat Hepatic V1 Receptors): 56 nM
IC50 [1]: 11 nM
IC50 (oxytocin receptors): 1200 nM
inhibition at 10 µM (oxytocin receptors): 94%

Cc1cc(C(=O)N2Cc3cccn3Cc3ccccc32)ccc1NC(=O)c1ccc(Cl)cc1Cl [Example 99, N-[4-(5H-pyrrolo[2,1-c][1,4]-benzodiazepin-10(11H)-yl-carbonyl)-2-methylphenyl]-2,4-dichlorobenzamide]
Osmolality (Vasopressin V2; 30 mg/kg orally): 334 mOsm/kg
Urine Volume (Vasopressin V2; 30 mg/kg orally): 15.2 ml/4 hrs
IC50 (Rat Hepatic V1 Receptors): 27 nM
IC50 [1]: 10 nM
Max. % Inhibition (Vasopressin V1; 10 mg/kg i.v.): 76%
Time (of max. % inhibition) (Vasopressin V1; 10 mg/kg i.v.): 120 min
% Inhibition (Vasopressin V1; [2]): 74%
Average Change (Vasopressin V1; [2]): 9.5
% Inhibition (Vasopressin V1; [3]): 29%
Average Change (Vasopressin V1; [3]): 25.5
% Inhibition (Vasopressin V1; [4]): 47%
Average Change (Vasopressin V1; [4]): 19
% Inhibition (Vasopressin V1; [5]): 76%
Average Change (Vasopressin V1; [5]): 8.5
% Inhibition (Vasopressin V1; [6]): 68%
Average Change (Vasopressin V1; [6]): 11.5
% Inhibition (Vasopressin V1; [7]): 50%
Average Change (Vasopressin V1; [7]): 18
% Inhibition (Vasopressin V1; [8]): 44%
Average Change (Vasopressin V1; [8]): 20
% Inhibition (Vasopressin V1; [9]): 64%
Average Change (Vasopressin V1; [9]): 13
% Inhibition (Vasopressin V1; [10]): 72%
Average Change (Vasopressin V1; [10]): 10
% Inhibition (Vasopressin V1; [11]): 26%
Average Change (Vasopressin V1; [11]): 26.5
% Inhibition (Vasopressin V1; [12]): 53%
Average Change (Vasopressin V1; [12]): 17
% Inhibition (Vasopressin V1; [13]): 44%
Average Change (Vasopressin V1; [13]): 20
% Inhibition (Vasopressin V1; [14]): 40%
Average Change (Vasopressin V1; [14]): 21.5
% Inhibition (Vasopressin V1; [15]): 38%
Average Change (Vasopressin V1; [15]): 22.5

O=C(Nc1ccc(C(=O)N2Cc3cccn3Cc3ccccc32)cc1)C1CCCCC1 [Example 358, N-[4-(5H-Pyrrolo[2,1-c][1,4]benzodiazepin-10(11)ylcarbonyl)phenyl]-cyclohexanecarboxamide]
Osmolality (Vasopressin V2; 30 mg/kg orally): 875 mOsm/kg
Urine Volume (Vasopressin V2; 30 mg/kg orally): 5.5 ml/4 hrs
IC50 (Rat Hepatic V1 Receptors): 11 nM
IC50 [1]: 16 nM
% Inhibition (Vasopressin V1; [2]): 67%
Average Change (Vasopressin V1; [2]): 12
% Inhibition (Vasopressin V1; [3]): 64%
Average Change (Vasopressin V1; [3]): 13
% Inhibition (Vasopressin V1; [4]): 52%
Average Change (Vasopressin V1; [4]): 17.5
% Inhibition (Vasopressin V1; [5]): 78%
Average Change (Vasopressin V1; [5]): 8
% Inhibition (Vasopressin V1; [6]): 52%
Average Change (Vasopressin V1; [6]): 17.5
% Inhibition (Vasopressin V1; [7]): 67%
Average Change (Vasopressin V1; [7]): 12
% Inhibition (Vasopressin V1; [8]): 48%
Average Change (Vasopressin V1; [8]): 19
% Inhibition (Vasopressin V1; [9]): 39%
Average Change (Vasopressin V1; [9]): 24
% Inhibition (Vasopressin V1; [10]): 75%
Average Change (Vasopressin V1; [10]): 10
% Inhibition (Vasopressin V1; [11]): 72%
Average Change (Vasopressin V1; [11]): 11
% Inhibition (Vasopressin V1; [12]): 65%
Average Change (Vasopressin V1; [12]): 14
% Inhibition (Vasopressin V1; [13]): 63%
Average Change (Vasopressin V1; [13]): 14.5
% Inhibition (Vasopressin V1; [14]): 61%
Average Change (Vasopressin V1; [14]): 15.5
% Inhibition (Vasopressin V1; [15]): 59%
Average Change (Vasopressin V1; [15]): 16

Cc1c(F)cccc1C(=O)Nc1ccc(C(=O)N2Cc3cccn3Cc3ccccc32)cc1 [Example 466, N-[4-(5H-pyrrolo[2,1-c][1,4]benzodiazepin-10(11H)-ylcarbonyl)phenyl]-3-fluoro-2-methylbenzamide]
Osmolality (Vasopressin V2; 10 mg/kg orally): 522 mOsm/kg
Urine Volume (Vasopressin V2; 10 mg/kg orally): 14.1 ml/4 hrs
IC50 (Rat Hepatic V1 Receptors): 26 nM
IC50 [1]: 4 nM
Max. % Inhibition (Vasopressin V1; 30 mg/kg i.v.): 94%
Time (of max. % inhibition) (Vasopressin V1; 30 mg/kg i.v.): 94 min

Cc1cccc(C(=O)Nc2ccc(C(=O)N3Cc4cccn4Cc4ccccc43)cc2)c1C [Example 467, N-[4-(5H-pyrrolo[2,1-c][1,4]benzodiazepin-10(11H)-ylcarbonyl)phenyl]-2,3-dimethylbenzamide]
Osmolality (Vasopressin V2; 10 mg/kg orally): 365 mOsm/kg
Urine Volume (Vasopressin V2; 10 mg/kg orally): 18 ml/4 hrs
IC50 (Rat Hepatic V1 Receptors): 31 nM
IC50 [1]: 5 nM
Max. % Inhibition (Vasopressin V1; 10 mg/kg i.v.): 65%
Time (of max. % inhibition) (Vasopressin V1; 10 mg/kg i.v.): 120 min

Cc1ccccc1NC(=O)c1ccc(C(=O)N2Cc3cccn3Cc3ccccc32)cc1 [Example 484, N-(2-Methylphenyl)-4-(5H-pyrrolo[2,1-c][1,4]-benzodiazepin-10(11H)-ylcarbonyl)benzamide]
Osmolality (Vasopressin V2; 10 mg/kg orally): 785 mOsm/kg
Urine Volume (Vasopressin V2; 10 mg/kg orally): 8 ml/4 hrs
IC50 (Rat Hepatic V1 Receptors): 97 nM
IC50 [1]: 25 nM
Max. % Inhibition (Vasopressin V1; 10 mg/kg i.v.): 79%
Time (of max. % inhibition) (Vasopressin V1; 10 mg/kg i.v.): 300 min
Max. % Inhibition (Vasopressin V1; 30 mg/kg p.o.): 22%
Time (of max. % inhibition) (Vasopressin V1; 30 mg/kg p.o.): 180 min

Cc1ccccc1C(=O)Nc1ccc(C(=O)N2CCc3nncn3-c3ccccc32)cc1 [Example 486, N-[4-[(4,5-Dihydro-6H-[1,2,4]triazolo[4,3-a][1,5]-benzodiazepin-6-yl)carbonyl)phenyl]-2-methylbenzoate]
inhibition at 10 µM (Rat Hepatic V1 Receptors): 39%
inhibition at 10 µM [1]: 77%
inhibition at 10 µM (oxytocin receptors): 18%

O=C(c1ccc(NP(=O)(c2ccccc2)c2ccccc2)cc1)N1Cc2cccn2Cc2ccccc21 [Example 491, 10-[4-[(Diphenylphosphinyl)amino]benzoyl]-10,11-dihydro-5H-pyrrolo-[2,1-c][1,4]benzodiazepine]
inhibition at 10 µM (Rat Hepatic V1 Receptors): 82%
inhibition at 10 µM [1]: 83%
inhibition at 10 µM (oxytocin receptors): 46%

O=Cc1ccc2n1Cc1ccccc1N(C(=O)c1ccc(NC(=O)c3ccc(Cl)cc3Cl)cc1)C2 [Example 580, 2,4-Dichloro-N-[4-[(3-formyl-5H-pyrrolo[2,1-c][1,4]benzodiazepin-10(11H)-yl)carbonyl]phenyl]benzamide]
IC50 (Rat Hepatic V1 Receptors): 200 nM
IC50 [1]: 80 nM
IC50 (oxytocin receptors): 2960 nM
inhibition at 10 µM (oxytocin receptors): 79%

O=C(Nc1ccc(C(=O)N2Cc3cccn3Cc3ccccc32)cc1)C(Cl)c1ccccc1 (stereo not drawn) [Example 583, α-Chloro-N-[4-(5H-pyrrolo[2,1-c][1,4]benzodiazepin-10(11H)-ylcarbonyl)phenyl]benzeneacetamide]
IC50 (Rat Hepatic V1 Receptors): 54 nM
IC50 [1]: 27 nM
IC50 (oxytocin receptors): 4000 nM
inhibition at 10 µM (oxytocin receptors): 61%

O=C(CCl)Nc1ccc(C(=O)N2Cc3cccn3Cc3ccccc32)cc1 [Example 589, 2-Chloro-N-[4-(5H-pyrrolo[2,1-c][1,4]benzodiazepin-10(11H) -ylcarbonyl)phenyl]acetamide]
inhibition at 10 µM (Rat Hepatic V1 Receptors): 91%
inhibition at 10 µM [1]: 82%
IC50 (oxytocin receptors): 2900 nM
inhibition at 10 µM (oxytocin receptors): 79%

O=C(CN1CCOCC1)N(Cc1ccccc1Cl)c1ccc(C(=O)N2Cc3cccn3Cc3ccccc32)cc1 [Example 591, N-[(2-Chlorophenyl)methyl]-N-[4-(5H-pyrrolo[2,1-c][1,4]benzodiazepin-10(11H) -ylcarbonyl)phenyl]-4-morpholineacetamide]
inhibition at 10 µM (Rat Hepatic V1 Receptors): 45%
inhibition at 10 µM [1]: 64%
inhibition at 10 µM (oxytocin receptors): 29%

O=C(Nc1ccc(C(=O)N2Cc3ccc(C(=O)C(Cl)(Cl)Cl)n3Cc3ccccc32)cc1)c1ccc(Cl)cc1Cl [Example 598, N-[4-[[3-(Trichloroacetyl)-5H-pyrrolo[2,1-c][1,4]benzodiazepin-10(11H) -yl]carbonyl]phenyl]-2,4-dichlorobenzamide]
inhibition at 10 µM (Rat Hepatic V1 Receptors): 58%
inhibition at 10 µM [1]: 93%
inhibition at 10 µM (oxytocin receptors): 2%
